This assay concerns the target T1, human 5-HT2A receptor (Homo sapiens, UniProt P28223).
T1 construct: expressed in transfected cells; host or cells: COS7 cells, transient transfection, pCMV vector; crude membranes
Briefly: [125I]DOI radioligand binding assay. The following applies: 0.5 nM [125I]DOI, membranes of COS7 cells transfected with human 5-HT2A receptor. As to the method:
Crude membrane pellets were stored at −80° C. until used for radioligand binding assays.
T1 sequence (P28223 whole entry): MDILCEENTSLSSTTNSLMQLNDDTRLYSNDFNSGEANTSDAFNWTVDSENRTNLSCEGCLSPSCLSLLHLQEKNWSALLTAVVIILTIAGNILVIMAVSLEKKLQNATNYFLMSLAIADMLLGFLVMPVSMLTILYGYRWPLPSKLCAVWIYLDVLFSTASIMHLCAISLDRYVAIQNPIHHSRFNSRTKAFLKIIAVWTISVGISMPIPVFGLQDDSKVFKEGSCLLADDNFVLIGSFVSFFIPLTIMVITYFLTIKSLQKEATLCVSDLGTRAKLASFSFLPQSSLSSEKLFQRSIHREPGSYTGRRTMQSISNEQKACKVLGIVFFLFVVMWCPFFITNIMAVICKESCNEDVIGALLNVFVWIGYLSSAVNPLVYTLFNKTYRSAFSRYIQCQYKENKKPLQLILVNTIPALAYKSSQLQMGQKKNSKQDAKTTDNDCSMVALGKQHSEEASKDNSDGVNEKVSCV
Compound `CC(C)COC(=O)Nc1ccc(OCCN2CCCC2)c(-c2c(Br)cnn2C)c1` [Compound 23, [3-(4-Bromo-2-methyl-2H-pyrazol-3-yl)-4-(2-pyrrolidin-1-yl-ethoxy)-phenyl]-carbamic acid isobutyl ester] came in with an IC50 of 0.0011 µM.
`Cn1nccc1-c1cc(NC(=O)NCc2ccc(Cl)cc2)ccc1OCCN1CCCCC1` [Compound 45, 1-(4-Chloro-benzyl)-3-[3-(2-methyl-2H-pyrazol-3-yl)-4-(2-piperidin-1-yl-ethoxy)-phenyl]-urea]: the IC50 is 0.0102 µM.
For `Cn1nccc1-c1cc(NC(=O)Cc2ccc(F)cc2)ccc1OCCN1CCOCC1` [Compound 160, 2-(4-Fluoro-phenyl)-N-[3-(2-methyl-2H-pyrazol-3-yl)-4-(2-morpholin-4-yl-ethoxy)-phenyl]-acetamide] the value was 0.0137 µM.

The values above are taken from US20070244086A1, “3-Phenyl-Pyrazole Derivatives as Modulators of the 5-Ht2A Serotonin Receptor Useful for the Treatment of Disorders Related Thereto” (Arena Pharmaceuticals, Inc., priority 2004, published 2007).
